Experiment: gradient 5% acetonitrile 3 min, to 50% in 2 min, to 85% in 15 min, held 3 min, 100 µL/min
Details: column: Zorbax Extend-C18 2.1 x 50 mm; eluents: water / acetonitrile, 0.1% formic acid
Method in brief: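 In both positive and negative ionization mode, a quadrupole time-of-flight mass spectrometer coupled to HPLC analyzed pure standards run in mixtures of ~100 molecules. The Zorbax Extend-C18 column (2.1 × 50 mm, 1.8 μm) was operated at 100 μL/min with water and acetonitrile, each containing 0.1% formic acid. The dead volume was 40 μL and the dwell volume 900 μL. Retention time came from adduct peaks that were computationally picked and individually inspected by hand.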

Structure (SMILES)	RP-LC retention time [s]
O=C1Nc2cc(S(=O)(=O)NCCC3=CCCCC3)ccc2SC1C(=O)N1CCCC1 (stereo unspecified)	858
Cc1sc(-c2cc(C(F)(F)F)[nH]n2)cc1S(=O)(=O)N1CCN(c2ccc(Cl)cc2)CC1	1180
CCc1nnc(-c2ccc3ccn(CC(=O)NCc4ccc(F)cc4)c3c2)o1	801
Cc1cnc(-c2ccncc2)n1C1CCN(C(=O)C2(C)CCCCC2)C1 (stereo unspecified)	626
O=C1[C@@H]2[C@H]3CC[C@H](C3)[C@@H]2C(=O)N1C[C@@H]1CCCC[C@H]1CN1CCN(c2nsc3ccccc23)CC1	884
Cc1ccc(CNC(=O)Cn2ncn3c(C)c(C(=O)NCc4ccc(C)cc4)c(C)c3c2=O)cc1	851
Cc1c(F)cccc1NC(=O)N1CCCC1c1nncn1-c1ccccc1 (stereo unspecified)	744
O=C(Cc1ccsc1)N1CCc2cc(-c3csc(C4CC4)n3)ccc21	1120
COC[C@@H]1CN(S(=O)(=O)Cc2ccccc2)C[C@H]1c1ccccn1	693
Nc1nc(N)nc(C2C=CCCC2)n1 (stereo unspecified)	620
CCOC(=O)c1cc(S(=O)(=O)N2CCCC2C(=O)NC2CCC(C)CC2)cn1C (stereo unspecified)	966
CSc1ccc(CNC(=O)C2CCN(c3cnc4nccnc4c3)CC2)cc1	702
CCn1c(=O)c(C(=O)NCc2ccc(F)cc2)nc2cccnc21	790
CC(C)OCCCNC(=O)CN1c2ccc(F)cc2-c2ccccc2S1(=O)=O	890
Cc1ccc(N2CC(C(=O)NCC(=O)N3CCCc4ccccc43)CC2=O)cc1C (stereo unspecified)	822
Cc1csc(-c2ccc(N3CCN(C(=O)c4nccc5ccccc45)CC3)nc2)n1	829
COc1ccc(CC(=O)NC2CCN(c3cc(-c4ccc(F)cc4)[nH]n3)C2)cc1OC (stereo unspecified)	670
Cc1cccc(-c2nc(-c3cn(-c4ccccc4)nn3)no2)c1	1060

Structure (SMILES)	RP-LC retention time [s]
CCCN1C(=O)COc2ccc(-c3noc(-c4ccc(OC)c(OC)c4)n3)cc21	1110
COc1cccc(NC(=O)Cn2nc3nc(N4CCCC(C)C4)ccn3c2=O)c1 (stereo unspecified)	768
CCOc1ccccc1-n1ccn(Cc2nc(-c3ccc(C)cc3)no2)c(=O)c1=O	920
Cc1cc(C2CCCN2C(=O)c2c(-c3ccccc3Cl)noc2C)on1 (stereo unspecified)	816
Cc1cc2nn(CC(=O)NC3CCCCC3)c(=O)n2c(Nc2ccc(F)cc2)n1	909
COCCN1C(=O)CCc2cc(NC(C)=O)ccc21	604
O=C(C1CCCN(c2cnc3nccnc3c2)C1)N1CCN(c2ccccc2)CC1 (stereo unspecified)	715
Cc1nnc(NC(=O)Cc2csc(Nc3ccc(OC(F)(F)F)cc3)n2)s1	790
CC(C(=O)N1CCN(c2ccccn2)CC1)n1nc(-c2ccccc2)c2cc(Cl)ccc21 (stereo unspecified)	835
CCOC(=O)N1CCN(Cc2c(NC(=O)c3ccccc3)sc(C)c2C)CC1	630
COc1ccc(OCc2nc(-c3ccc(-c4csc(C5CC5)n4)cc3)no2)cc1	1300
COc1cc(=O)n2c(c1C(=O)Nc1ccc(Br)c(C)c1)CCCC2	833
Cc1ccc(S(=O)(=O)[C@H]2CS(=O)(=O)C[C@@H]2N2CCN(c3ccccc3)CC2)cc1	920
O=C(NCC(c1ccc2c(c1)OCO2)N1CCOCC1)C(=O)Nc1ccc(F)cc1F (stereo unspecified)	675
CN1C(=O)c2ccccc2Oc2ccc(C(=O)NCc3ccco3)cc21	788
OC(CN1CCN(c2cccc(Cl)c2)CC1)C(c1ccccc1)c1ccccc1 (stereo unspecified)	885
CCC(=O)NCc1csc(C2CCCN(C(=O)CC(C)(C)C)C2)n1 (stereo unspecified)	703
CCc1ccc(CNC(=O)Cn2ccc3c(=O)n(C)c(=O)n(C)c32)cc1	716

Reference: the METLIN SMRT retention time set (Domingo-Almenara et al. 2019)
